# Results reported in PubChem BioAssay (NCI).
# Several values for one entry are separate records, joined by “and”; a condition that tells them apart may be missing. Equal values may be shown once.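 Values below derive from 48-hour exposures of cells grown in 96-well plates, with endpoints linearly interpolated between the two concentrations bracketing the appropriate inhibition level. GI50 marks 50% less growth. TGI denotes the concentration required for complete inhibition of growth.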
# How the values were obtained:
# Assay in all cases: NCI-60 cell line screen, 48 h
# A498 renal = system: A498 renal
# CCRF-CEM leukemia = system: CCRF-CEM leukemia
# COLO 205 colon = system: COLO 205 colon
# HOP-92 NSCLC = system: HOP-92 NSCLC
# IGROV1 ovarian = system: IGROV1 ovarian
# LOX IMVI melanoma = system: LOX IMVI melanoma
# NCI-H226 lung = system: NCI-H226 lung
# OVCAR-3 ovarian = system: OVCAR-3 ovarian
# OVCAR-8 ovarian = system: OVCAR-8 ovarian
# SF-295 CNS = system: SF-295 CNS
# SN12C renal = system: SN12C renal
# SNB-75 CNS = system: SNB-75 CNS
# BT-549 breast = system: BT-549 breast
# M14 melanoma = system: M14 melanoma
# 786-0 renal = system: 786-0 renal
# CAKI-1 renal = system: CAKI-1 renal
SMILES,TGI (A498 renal) [µM],TGI (CCRF-CEM leukemia) [µM],TGI (COLO 205 colon),TGI (HOP-92 NSCLC) [µM],TGI (IGROV1 ovarian) [µM],TGI (LOX IMVI melanoma) [µM],TGI (NCI-H226 lung) [µM],TGI (OVCAR-3 ovarian) [µM],TGI (OVCAR-8 ovarian) [µM],TGI (SF-295 CNS) [µM],TGI (SN12C renal) [µM],TGI (SNB-75 CNS),TGI (BT-549 breast) [µM],TGI (M14 melanoma) [µM],TGI (786-0 renal) [µM],TGI (CAKI-1 renal) [µM],GI50 (OVCAR-8 ovarian),GI50 (SN12C renal),GI50 (SNB-75 CNS),GI50 (A498 renal) [µM]
CC1=C2C3OC(=O)C(C)C3CCC2(C)C=CC1=Nc1ccccc1 (stereo not given),> 100,> 100,> 100 µM,> 100,> 100,> 100,> 100,> 100,> 100,> 100,> 100,> 100 µM,–,–,–,–,–,–,–,–
CCOC(=O)C(OP(=O)(OCC)OCC)C(F)(F)F (stereo not given),> 100,> 100,–,–,–,> 100,> 100,> 100,–,–,> 100,> 100 µM,> 100,> 100,–,–,–,–,–,–
c1ccc([P+](c2ccccc2)(c2ccccc2)C2c3ccccc3-c3ccccc32)cc1,4.51,7.61,2.63 µM,–,13.6,4.96,5.94,5.68,10.1,5.35,7.29,7.06 µM,7.44,11.3,10.9,69.1,–,–,–,–
CCOC(=O)C(CCc1ncnc2c1ncn2Cc1ccccc1)(CCc1ncnc2c1ncn2Cc1ccccc1)C(=O)OCC,> 100,–,> 100 µM,> 100,> 100,> 100,> 100,> 100,> 100,> 100,> 100,–,> 100,> 100,> 100,> 100,–,–,–,–
CC(=O)Nc1ccc(Sc2nnc(NC(C)=O)s2)cc1,–,> 100,> 100 µM,–,> 100,–,–,–,> 100,> 100,> 100,> 100 µM,–,> 100,–,–,–,–,–,–
O=c1ccnc2ccc3n[nH][nH]c3c12,> 100,> 100,> 100 µM,> 100,> 100,–,–,> 100,> 100,> 100,> 100,> 100 µM,–,> 100,> 100,> 100,–,–,–,–
CCCCCCCCOC(=O)c1cc([N+](=O)[O-])c(Sc2ncnc3nc[nH]c23)c([N+](=O)[O-])c1,44.9,2.68,3.68 µM,6.32,16,1.24,13.5,4.01,10.1,11.2,7.34,9.27 µM,25.7,26.9,> 37.2,17.7,–,–,–,–
COc1cc2c[n+](C)c3c4cc(OC)c(OC)cc4ccc3c2cc1OC,> 100,> 100,42.8 µM and 39.9 µM,–,97.7,> 100,> 100,> 100,> 100,> 100,> 100,> 100 µM and 98.9 µM,> 100,> 100,> 100,> 100,32.9 µM and 15 µM,30.4 µM and 3.98 µM,> 100 µM and 31.6 µM,–
C=CCCCCCCCCC(=O)O,1.06,292,197 µM,199,287,259,394,176,283,200,339,468 µM,–,–,–,214,–,–,–,–
CN(C(=O)c1ccc(OCCCC(=O)O)c(Cl)c1Cl)C1CCCC1,> 100,> 100,> 100 µM,> 100,> 100,> 100,> 100,> 100,> 100,> 100,> 100,> 100 µM,–,–,–,> 100,–,–,–,–
Cn1c(=O)c(Cl)c(N=[N+]=[N-])c2ccccc21,> 100,> 100,> 100 µM,> 100,> 100,> 100,> 100,> 100,> 100,> 100,> 100,> 100 µM,–,–,–,> 100,–,–,–,–
COC1=CC(=O)C2=C(C[C@@]3(C)C(=C2)C(CO)=CC[C@H]3O)C1=O,> 100,38.4,65.9 µM,24.5,31.7,38.9,29.2,56.2,32.9,41.2,32.8,–,34,44.2,38.1,> 100,–,–,–,–
CC(=O)OCC1OC(n2nc(Cc3ccccc3)c(=S)[nH]c2=S)C(OC(C)=O)C(OC(C)=O)C1OC(C)=O (stereo not given),> 100,–,> 100 µM,40.6,45.7,41.9,> 100,41.2,58.4,> 100,55.3,39.8 µM,41.7,38.1,> 100,> 100,–,–,–,–
CNC(=O)NS(=O)(=O)c1ccc(C)cc1,–,> 100,> 100 µM,> 100,> 100,> 100,–,–,> 100,> 100,> 100,> 100 µM,> 100,> 100,> 100,–,–,–,–,–
O=c1oc2ccc([N+](=O)[O-])cc2cc1Br,> 100,> 100,> 100 µM,> 100,> 100,> 100,> 100,> 100,> 100,> 100,> 100,–,> 100,> 100,> 100,> 100,–,–,–,–
O=[N+]([O-])c1cccc(N=Nc2c(O)ccc3ccccc23)c1,> 100,56.7,> 100 µM,> 100,> 100,> 100,–,–,> 100,> 100,> 100,> 100 µM,> 100,> 100,> 100,> 100,–,–,–,–
O=c1c([OH2+])c(-c2ccc(O)cc2[O-])oc2cc(O)cc([O-])c12.O=c1c([OH2+])c(-c2ccc(O)cc2[O-])oc2cc(O)cc([O-])c12.[Ti+4],> 100,> 100,> 100 µM,–,> 100,> 100,> 100,> 100,> 100,> 100,> 100,> 100 µM,–,> 100,> 100,> 100,–,–,–,> 100
CCN1CCC(O)(c2ccc(O)cc2)C(C(=O)c2ccc(O)cc2)C1 (stereo not given),–,30,37.9 µM,37.5,44,27.4,61.9,32.8,> 100,> 100,42,60.1 µM,–,36.4,–,–,–,–,–,–
O=C1O/C(=C\c2ccc(O)cc2)C(c2ccc(O)c(Cl)c2)=C1Cl,> 100,> 100,> 100 µM,60.6,> 100,> 100,> 100,> 100,> 100,> 100,> 100,> 100 µM,–,> 100,> 100,> 100,–,–,–,–
CCOC(=O)C(=O)NC12CC3CC(CC(C3)C1)C2,> 100,> 100,> 100 µM,> 100,> 100,> 100,> 100,–,> 100,> 100,> 100,> 100 µM,–,> 100,–,> 100,–,–,–,–
O=[N+]([O-])C(=C/c1cccs1)/C(=C\c1cccs1)[N+](=O)[O-],–,0.276,2.93 µM,3.28,–,0.688,9.84,21.7,8.06,4.92,–,> 95.2 µM,4.27,6.88,–,1.41,–,–,–,–
CC[C@H](C)[C@H](NC(=O)[C@@]1(O)[C@H](O)[C@]2(CC)C=CCN3CC[C@@]4(c5cc(Br)c(OC)cc5N(C)[C@@H]14)[C@@H]32)C(=O)OC,> 100,67.3,29.2 µM,–,> 100,35.5,–,> 100,> 100,> 100,> 100,–,> 100,84.5,> 100,> 100,–,–,–,–
COC(=O)C1=NN2c3ccccc3CN([C@@H](C)c3ccccc3)C(=O)[C@@H]2[C@H]1c1ccccc1,> 100,> 100,> 100 µM,> 100,–,> 100,> 100,> 100,> 100,> 100,> 100,> 100 µM,> 100,> 100,> 100,> 100,–,–,–,–
